The source of these data is PMC12736951, “Design, Synthesis, and Biological Evaluation of 6″-Modified Apramycin Derivatives to Overcome Aminoglycoside Resistance” (Pharmaceutics, 2025).

≈ marks a conversion by molar mass, not a printed value. Like-named read-outs stand apart in the source and are kept apart here.

In assay [1] the test system is P. aeruginosa ATCC 27853. The assay can be described thus: MIC, broth microdilution. Type of assay: cell-based. The conditions noted are these: Pseudomonas aeruginosa, ATCC27853, Table 1. The source says: (§1) The microbial strains used in this study were obtained from the collection of the Gause Institute of New Antibiotics. The control strains included in the analysis were S. aureus ATCC 29213, E. coli ATCC 25922, P. aeruginosa ATCC 27853, M. smegmatis ATCC 607. Clinical isolates E. coli MAR17-1350, K. pneumoniae APEX-5, K. pneumoniae MAR14-3395, and K. pneumoniae MAR18-1752 with multidrug resistance, including resistance to aminoglycosides were kindly provided by the Research Institute of Antimicrobial Chemotherapy (RIAC) of the Smolensk State Medical University, Smolensk. The microbial cultures were stored at −75 °C in trypticase soy broth (Becton, Dickinson, France) containing 10–15% glycerol. Storage was carried out in accordance with CLSI guidelines. Prior to experimentation, the bacterial strains were revived from cryopreservation by inoculating them onto trypticase soy agar (Becton, Dickinson, France) and incubating at (36 ± 1) °C for 16–24 h. Individual morphologically homogeneous colonies were then suspended in sterile physiological saline, and the turbidity of the suspension was adjusted to 0.5 McFarland units using a DEN-1 spectrophotometer (Biosan, Riga, Latvia), which corresponds to a concentration of 1.5 × 10^8 CFU/mL.
(§2) The samples were dissolved in sterile distilled water, depending on the physicochemical properties of the compounds under investigation, to a concentration of 10,000 µg/mL. Working solutions were then prepared by serial dilution, resulting in concentrations ranging from 64 µg/mL to 0.125 µg/mL.
(§3) Activity was evaluated by determining the minimum inhibitory concentration (MIC) values using the microdilution method in Mueller–Hinton Broth (Beckton and Dickinson, Le Pont-de-Claix, France), in accordance with the standard procedure for assessing the antimicrobial susceptibility of microorganisms.
(§4) The analysis was conducted in 96-well microtiter plates (Medpolymer, Saint Petersburg, Russia). The bacterial inoculum was introduced within 15 min of preparation. MIC values were determined after incubation for 15–18 h at (36 ± 1) °C. Microbial growth in the presence of the tested compounds was compared to the growth control (without exposure to the test samples). The MIC was defined as the lowest concentration at which visible microbial growth was inhibited.
(§5) To ensure the accuracy of the results, the control antibiotics kanamycin A, gentamycin, and tobramycin (Abcr GmbH, Karlsruhe, Germany) were included, along with standard reference strains: E. coli ATCC 25922. The MIC values for kanamycin A were determined as follows: E. coli ATCC 25922—1–4 µg/mL [22]. For gentamycin, the MIC values were E. coli ATCC 25922–0.25–1 µg/mL [23]. For tobramycin, the MIC values were E. coli ATCC 25922–0.25–1 µg/mL [23]. The MIC values of the reference strains were required to fall within the acceptable ranges specified in [24], provided that standard assay conditions were maintained.
For orientation: Broth dilution looks for growth in wells or tubes with falling amounts of substance.

Assay [2] relates to S. aureus ATCC 29213. In words: MIC, broth microdilution. Type of assay: cell-based. The conditions noted are these: Staphylococcus aureus, ATCC29213, Table 1.
Excerpt: as §1, §2, §3, §4, §5

Assay [3] has as its system E. coli ATCC 25922. The assay can be described thus: MIC, broth microdilution. It counts as cell-based, Escherichia coli.
Excerpt: as §1, §2, §3, §4, §5

The subject of assay [4] is M. smegmatis ATCC 607. In words: MIC, broth microdilution. The conditions noted are these: Mycolicibacterium smegmatis, ATCC607, Table 1. It counts as cell-based, Mycobacterium smegmatis.
Excerpt: as §1, §2, §3, §4, §5

Assay [5] concerns E. coli MAR17-1350. In words: MIC, MDR clinical isolate. Type of assay: cell-based. The conditions noted are these: E. coli MAR17-1350, MDR clinical isolate (NDM-5).
Excerpt: as §1, §2, §3, §4, §5

The test system of assay [6] is K. pneumoniae APEX-5. In words: MIC, MDR clinical isolate. Type of assay: cell-based. The conditions noted are these: K. pneumoniae APEX-5, MDR clinical isolate (NDM-16).
Excerpt: as §1, §2, §3, §4, §5

Assay [7] relates to K. pneumoniae MAR14-3395. In words: MIC, MDR clinical isolate. It counts as cell-based. The conditions noted are these: K. pneumoniae MAR14-3395, MDR clinical isolate (NDM-1 + OXA-244).
Excerpt: as §1, §2, §3, §4, §5

Assay [8] concerns K. pneumoniae MAR18-1752. In words: MIC, MDR clinical isolate. Type of assay: cell-based. The conditions noted are these: K. pneumoniae MAR18-1752, MDR clinical isolate (NDM-1).
Excerpt: as §1, §2, §3, §4, §5

Assay [9] concerns E. coli JW5503 kanS. The assay can be described thus: MIC against E. coli JW5503 parent strain. Type of assay: cell-based. The protocol: (§6) The determination of the MIC values was performed on five strains from the working collection of MSU. E. coli JW5503 [25], which lacked a kanamycin resistance cassette that had been removed as per the method outlined in [26], and a strain derived from this strain through in vitro selection with kanamycin. […] Strains containing AG-modifying enzymes were obtained through the transformation of E. coli JW5503 with plasmids that carried cassettes of resistance, namely pCRISPomyces-2–AAC(3)-IV (Addgene #61737), pdualrep2–APH(3′)-II [27] and pt67–ANT(3″). The MIC determination was performed as described for JW5503 in [19].

The subject of assay [10] is E. coli JW5503 EF-G P610T. The assay can be described thus: MIC against aminoglycoside-resistant EF-G mutant. It counts as cell-based. Here is the method: as §6
The subject of assay [11] is E. coli JW5503 KanR. In words: MIC against transformant carrying APH(3′)-II. Type of assay: cell-based. The protocol: as §6
The subject of assay [12] is E. coli JW5503 SmR. The assay can be described thus: MIC against transformant carrying ANT(3″). Type of assay: cell-based. The protocol: as §6
The test system of assay [13] is E. coli JW5503 ApmR. The assay can be described thus: MIC against transformant carrying AAC(3)-IV. Type of assay: cell-based. Here is the method:
as §6

Assay [14] has as its system E. coli JW5503 with pJC27 β-galactosidase codon 537 reporter. In words: Translation accuracy using β-galactosidase reporters. It counts as cell-based. The conditions noted are these: 0.1 μL of 50 mg/mL, 37 °C, 18 h, codon 537 GAC/GGG reporters. Here is the method: To evaluate translation accuracy in the presence of antibiotics, E. coli JW5503 (kanamycin resistance cassette removed as per) was transformed with pJC27 plasmids. […] The synthesis of active β-galactosidase depends on translation errors occurring (when codons GAC and GGG are read as GAA). Petri dishes (9 cm) containing 20 mL of solid LB agar (1.5%), supplemented with chloramphenicol (11.3 μg/mL) and X-Gal (80 μg/mL), were prepared. A secondary soft-agar layer comprising 3.5 mL of LB agar (0.6%) supplemented with 11.3 μg/mL chloramphenicol and 0.5 mL of liquid culture (A600~1.0) was added and allowed to solidify. Antibiotics were applied to the plates in 0.1 μL aliquots at a concentration of 50 mg/mL for tobramycin, streptomycin, kanamycin, and apramycin, and for 5a, 5b, 8a, and 8b. The plates were then incubated at 37 °C for 18 h. […] The results were documented using a Samsung Galaxy Tab A71 camera.

Assay [15] concerns HEK293T human embryonic kidney cell line. In words: Cytotoxicity, MTT test. The conditions noted are these: HEK-293T, 72 h, 2-250 µg/mL, read-out: IC50, viability of HEK293T cells. It counts as cell-based. Here is the method:
The MTT test was performed in order to evaluate the effect of the compounds on eukaryotic cells’ survivability. Compounds 5a,b, 8a,b, and apramycin, as the reference drug, were tested on HEK293T human embryonic kidney cell line (ATCC). Compounds 5a,b, 8a,b, and apramycin were prepared as water solutions with a 50 mg/mL concentration. The HEK293T cell line was cultivated in DMEM/F-12 medium (Paneco LLC, Moscow, Russia) containing 10% FBS, 50 µg/mL penicillin, and 50 µg/mL streptomycin (Thermo Fisher Scientific, USA) at 37 °C in 5% CO2. Triplicates on 96-well plates were used, and 2500 HEK293T cells were seeded in 140 µL of DMEM/F-12 medium in each well during day one. The next day, compounds in twofold successive dilutions were added to these plates (concentrations in wells ranged between 2 and 250 µg/mL for 5a, 5b, and 8a, 8b). Plates were incubated for 72 h at 37 °C in 5% CO2. Afterwards, 0.5 mg/mL of the MTT reagent (Paneco LLC, Moscow, Russia) was added to each well. After 2 h of incubation, the media with MTT was replaced with 140 µL of DMSO, and all plates were placed on a shaker for 10 min for formazan to dissolve. Finally, the absorbance at a 555 nm wavelength was measured on all plates via the plate reader Victor X5 (PerkinElmer, Waltham, MA, USA). The data were then normalized, and dose–response curves and IC50 were calculated by means of GraphPad Prism version 8.0.2. (GraphPad Software, Inc., San Diego, CA, USA).
On the technique in general: Formazan colour is commonly taken as a measure of viable cells.

For assay [16], the system named is E. coli ATCC 25922. The conditions noted are these: E. coli ATCC 25922, reference strain quality control; cited from earlier work.
Setting [17] is: Escherichia coli, MAR171350, read-out: MIC.
Where [18] appears, read: Klebsiella pneumoniae, APEX5, read-out: MIC.
The mark [19] stands for this setting: Klebsiella pneumoniae, MAR143395, read-out: MIC.
[20] abbreviates: Klebsiella pneumoniae, MAR181752, read-out: MIC.

The MIC is the lowest concentration found to suppress growth. One may read the IC50 as the concentration at which inhibition is half-maximal. For `CN[C@@H]1[C@@H](O[C@H]2O[C@H](CO)[C@@H](N)[C@H](O)[C@H]2O)OC2C[C@@H](N)[C@@H](O[C@H]3[C@H](O)[C@@H](O)[C@H](N)C[C@@H]3N)OC2[C@@H]1O` (stereo partly drawn) [Apramycin (1), apramycin], the MIC worked out at 2 µg/mL (≈ 3.71 µM) in [1]; 1 µg/mL (≈ 1.85 µM) in [2]; 1 µg/mL (≈ 1.85 µM) in assay [3] (Escherichia coli, ATCC25922, Table 1, read-out: MIC); 0.125 µg/mL (≈ 0.232 µM) in assay [4]; 4 µg/mL (≈ 7.41 µM) in assay [5] (setting [17]); 1 µg/mL (≈ 1.85 µM) in assay [6] (setting [18]). The MIC is 1 µg/mL in assay [7] (setting [19]); 1 µg/mL (≈ 1.85 µM) in assay [8] (setting [20]); 8 µg/mL (≈ 14.8 µM) in [9] (Escherichia coli, JW5503KANS); 64 µg/mL (≈ 119 µM) in assay [10] (Escherichia coli); 4 µg/mL (≈ 7.41 µM) in [11] (Escherichia coli, JW5503KANR); 8 µg/mL (≈ 14.8 µM) in assay [12] (Escherichia coli, JW5503SMR). Besides, the MIC in assay [13] (Escherichia coli, JW5503APMR) is greater than 256 µg/mL. Moreover, the “induction of translation errors (blue staining at edge of inhibition zone)” value in assay [14] is listed as “blue staining”. Also, in assay [15], the IC50 was greater than 250 µg/mL.

With `[H]/N=C(/N)N[C@H]1[C@H](O)[C@@H](O)[C@H](O[C@@H]2O[C@@H](C)[C@](O)(C=O)[C@H]2O[C@@H]2O[C@@H](CO)[C@H](O)[C@@H](O)[C@@H]2NC)[C@@H](N/C(N)=N\[H])[C@@H]1O` [Streptomycin, streptomycin, reference compound], the MIC was 4 µg/mL (≈ 6.88 µM) in [9] (Escherichia coli, JW5503KANS); 8 µg/mL (≈ 13.8 µM) in assay [10] (Escherichia coli); 4 µg/mL (≈ 6.88 µM) in [11] (Escherichia coli, JW5503KANR); greater than 256 µg/mL in assay [12] (Escherichia coli, JW5503SMR); 4 µg/mL (≈ 6.88 µM) in [13] (Escherichia coli, JW5503APMR).

Regarding `NC[C@H]1O[C@H](O[C@H]2[C@H](O)[C@@H](O[C@H]3O[C@H](CO)[C@@H](O)[C@H](N)[C@H]3O)[C@H](N)C[C@@H]2N)[C@H](N)C[C@@H]1O` [Tobramycin, tobramycin, reference compound], the minimum inhibitory concentration (MIC) in assay [3] (Escherichia coli, ATCC25922, Table 2, read-out: MIC) is 0.5 µg/mL (≈ 1.07 µM); in assay [5] (setting [17]) it was greater than 128 µg/mL; in [6] (setting [18]) it was 32 µg/mL (≈ 68.4 µM); in assay [7] (setting [19]), greater than 128 µg/mL; in [8] (setting [20]), greater than 128 µg/mL; in assay [9] (Escherichia coli, JW5503KANS), 2 µg/mL (≈ 4.28 µM). Also, the minimal inhibitory concentration (MIC) was 16 µg/mL (≈ 34.2 µM) in [10] (Escherichia coli); 2 µg/mL (≈ 4.28 µM) in [11] (Escherichia coli, JW5503KANR); 4 µg/mL (≈ 8.56 µM) in [12] (Escherichia coli, JW5503SMR); greater than 256 µg/mL in [13] (Escherichia coli, JW5503APMR). Moreover, the “MIC, control antibiotic range” value in [16] was 0.25 to 1 µg/mL.

As to kanamycin A [reference compound], the MIC in [3] (Table 2) is on record as 2 µg/mL; in [5], greater than 128 µg/mL; in [6], greater than 128 µg/mL; in assay [7] it was greater than 128 µg/mL; in assay [8] it was greater than 128 µg/mL; in assay [9] (E. coli JW5503 kanS (parent strain)) it was 4 µg/mL. The MIC is on record as 64 µg/mL in assay [10] (E. coli JW5503 EF-G P610T (fusA mutant)); greater than 256 µg/mL in assay [11] (E. coli JW5503 KanR, APH(3′)-II on plasmid); 8 µg/mL in assay [12] (E. coli JW5503 SmR, ANT(3″) on plasmid); 32 µg/mL in assay [13] (E. coli JW5503 ApmR, AAC(3)-IV on plasmid). The “MIC, control antibiotic range” value in assay [16] was 1 to 4 µg/mL.
